According to patent publication US11090304B2 (Amgen Inc., priority 2018, dated 2021):
Like-named read-outs stand apart in the source and are kept apart here.

How the values were obtained:
[1] = target: GDP-bound KRAS protein (aa 1-169), containing both G12C and C118A amino acid substitutions (Homo sapiens, UniProt P01116, C118A/G12C); assay: Coupled nucleotide exchange assay (SOS-mediated, AlphaScreen); assay type: biochemical; details: for Coupled exchange IC50 (5 min): 5 min compound pre-incubation
Sequence of GDP-bound KRAS protein (aa 1-169), containing both G12C and C118A amino acid substitutions (P01116 1-169 isoform P01116-2 G12C/C118A): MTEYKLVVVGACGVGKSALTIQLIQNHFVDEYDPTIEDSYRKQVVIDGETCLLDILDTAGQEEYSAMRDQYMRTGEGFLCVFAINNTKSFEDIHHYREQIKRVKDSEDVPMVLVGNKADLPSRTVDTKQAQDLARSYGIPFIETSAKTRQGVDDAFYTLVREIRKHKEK

[2] = system: Phosphorylation of ERK1/2 in MIA PaCa-2 cells; assay: Phospho-ERK1/2 MSD assay in MIA PaCa-2 cells; assay type: cell-based
How it was run: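 In the procedure, cells were plated a day ahead at 25,000 per well. Next, a dilution series of compound in growth medium was added for 2 or 4 h. EGF (10 ng/mL) stimulation for 10 min preceded washing and RIPA lysis. Lysate phospho-ERK1/2 was read by MSD, with IC50 derived by 4-parameter logistic analysis.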

[3] = Homo sapiens, MIA PaCa-2, 2 h, read-out: p-ERK IC50 (2 h; MIA PaCa-2), 2 h compound treatment
[4] = read-out: p-ERK IC50 (2 h; MIA PaCa-2), 2 h compound treatment

C=CC(=O)N1CCN(c2nc(=O)n(-c3c(C)ccnc3C(C)C)c3nc(-c4c(O)cccc4F)c(F)cc23)C[C@H]1C (single isomer, unassigned) [Example 75-2]
Coupled exchange IC50 (5 min) [1]: 0.493 | nda μM | IC50 [2, 3]: 306 nM

C=CC(=O)N1CCN(c2nc(=O)n(-c3c(C)ccnc3C(C)C)c3nc(-c4c(O)cccc4F)c(F)cc23)CC1 (single isomer, unassigned) [Example 75-4, (M)-6-fluoro-7-(2-fluoro-6-hydroxyphenyl)-1-(4-methyl-2-(2-propanyl)-3-pyridinyl)-4-(4-(2-propenoyl)-1-piperazinyl)pyrido[2,3-d]pyrimidin-2(1H)-one]
Coupled exchange IC50 (5 min) [1]: 0.552 | nda μM | IC50 [2, 3]: 543 nM

C=CC(=O)N1C[C@@H](C)N(c2nc(=O)n(-c3c(C)ccnc3C(C)C)c3nc(-c4c(N)cccc4F)c(F)cc23)[C@@H](C)C1 (single isomer, unassigned) [Example 75-8]
Coupled exchange IC50 (5 min) [1]: 0.023 | nda μM | IC50 [2, 3]: 38 nM

C=CC(=O)N1CCN(c2nc(=O)n(-c3c(C)ccnc3C(C)C)c3nc(-c4c(O)cccc4F)c(F)cc23)[C@@H](C(F)F)C1 (single isomer, unassigned) [Example 75-9-2, (M)-4-((2S or 2R)-2-(difluoromethyl)-4-(2-propenoyl)-1-piperazinyl)-6-fluoro-7-(2-fluoro-6-hydroxyphenyl)-1-(4-methyl-2-(2-propanyl)-3-pyridinyl)pyrido[2,3-d]pyrimidin-2(1H)-one]
Coupled exchange IC50 (5 min) [1]: 0.136 | nda μM | IC50 ([2]; Homo sapiens, read-out: p-ERK IC50 (2 h; MIA PaCa-2), 2 h compound treatment): 113 nM

C=CC(=O)N1[C@@H]2CCC[C@H]1CN(c1nc(=O)n(-c3c(C)ccnc3C(C)C)c3nc(-c4ccccc4F)c(Cl)cc13)C2 (single isomer, unassigned) [Example 78-2, (M)-6-chloro-7-(2-fluorophenyl)-1-(4-methyl-2-(2-propanyl)-3-pyridinyl)-4-(9-(2-propenoyl)-3,9-diazabicyclo[3.3.1]nonan-3-yl)pyrido[2,3-d]pyrimidin-2(1H)-one]
Coupled exchange IC50 (5 min) [1]: 0.436 | nda μM | IC50 [2, 3]: 376 nM

C=CC(=O)N1CCN(c2nc(=O)n(-c3c(C)ccnc3C(C)C)c3nc(-c4ccccc4F)c(Cl)cc23)[C@@H](C(F)F)C1 (single isomer, unassigned) [Example 78-3-2]
Coupled exchange IC50 (5 min) [1]: 0.094 | nda μM | IC50 [2, 3]: 80 nM

C=CC(=O)N1CCN(c2nc(=O)n(-c3c(C)ccnc3C(C)C)c3nc(-c4ccccc4F)c(Cl)cc23)[C@H](C(F)F)C1 (single isomer, unassigned) [Example 78-3]
Coupled exchange IC50 (5 min) [1]: 0.141 | nda μM | IC50 [2, 3]: 246 nM

C=CC(=O)N1CCN(c2nc(=O)n(-c3c(C)ccnc3C(C)C)c3nc(-c4ccccc4F)c(Cl)cc23)C(CF)C1 (single isomer, unassigned) [Example 78-5, (M)-6-chloro-4-(2-(fluoromethyl)-4-(2-propenoyl)-1-piperazinyl)-7-(2-fluorophenyl)-1-(4-methyl-2-(2-propanyl)-3-pyridinyl)pyrido[2,3-d]pyrimidin-2(1H)-one]
Coupled exchange IC50 (5 min) [1]: 0.349 | nda μM | IC50 [2, 3]: 2610 nM

C=CC(=O)N1C[C@@H](C)N(c2nc(=O)n(-c3c(C)ccnc3C(C)C)c3nc(-c4ccccc4F)c(Cl)cc23)[C@@H](C)C1 (single isomer, unassigned) [Example 78-7, (M)-6-chloro-4-(cis-2,6-dimethyl-4-(2-propenoyl)-1-piperazinyl)-7-(2-fluorophenyl)-1-(4-methyl-2-(2-propanyl)-3-pyridinyl)pyrido[2,3-d]pyrimidin-2(1H)-one]
Coupled exchange IC50 (5 min) [1]: 0.034 | nda μM | IC50 [2, 3]: 23 nM

C=CC(=O)N1C[C@H](C)N(c2nc(=O)n(-c3c(C)ccnc3C(C)C)c3nc(-c4ccccc4F)c(Cl)cc23)[C@@H](C)C1 (single isomer, unassigned) [Example 78-8]
Coupled exchange IC50 (5 min) [1]: 0.026 | nda μM | IC50 [2, 3]: 10 nM

C=CC(=O)N1CCN(c2nc(=O)n(-c3c(C)ccnc3C(C)C)c3nc(-c4ccccc4F)c(Cl)cc23)C(C(F)(F)F)C1 (single isomer, unassigned) [Example 78-9, (M)-6-chloro-7-(2-fluorophenyl)-1-(4-methyl-2-(2-propanyl)-3-pyridinyl)-4-(4-(2-propenoyl)-2-(trifluoromethyl)-1-piperazinyl)pyrido[2,3-d]pyrimidin-2(1H)-one]
Coupled exchange IC50 (5 min) [1]: 0.515 | nda μM | IC50 [2, 3]: 348 nM

C=CC(=O)N1CCN(c2nc(=O)n(-c3c(C)ccnc3C(C)C)c3nc(-c4ccccc4F)c(Cl)cc23)[C@@H](CO)C1 (single isomer, unassigned) [Example 78-14]
Coupled exchange IC50 (5 min) [1]: 0.133 | nda μM | IC50 [2, 3]: 81 nM

C=CC(=O)N1CCN(c2nc(=O)n(-c3c(C)ccnc3C(C)C)c3nc(-c4ccccc4F)c(Cl)cc23)CC1 (single isomer, unassigned) [Example 78-15, (M)-6-chloro-7-(2-fluorophenyl)-1-(4-methyl-2-(2-propanyl)-3-pyridinyl)-4-(4-(2-propenoyl)-1-piperazinyl)pyrido[2,3-d]pyrimidin-2(1H)-one]
Coupled exchange IC50 (5 min) [1]: 0.124 | nda μM | IC50 [2, 3]: 61 nM

C=CC(=O)N1CCN(c2nc(=O)n(-c3c(C)cc(CN(C)C)cc3C(C)C)c3nc(-c4ccccc4F)c(Cl)cc23)[C@@H](C)C1 (single isomer, unassigned) [Example 80-1-1]
Coupled exchange IC50 (5 min) [1]: 0.044 | nda μM | IC50 [2, 4]: 29 nM

C=CC(=O)N1CCN(c2nc(=O)n(-c3c(C)cc(CN(C)C)cc3C(C)C)c3nc(-c4ccccc4F)c(Cl)cc23)[C@@H](C)C1 (single isomer, unassigned) [Example 80-1-2]
Coupled exchange IC50 (5 min) [1]: 0.556 | nda μM | IC50 [2, 4]: 236 nM

C=CC(=O)N1CCN(c2nc(=O)n(-c3c(C)cc(CO)cc3C(C)C)c3nc(-c4ccccc4F)c(Cl)cc23)[C@@H](C)C1 (single isomer, unassigned) [Example 80-2-2]
Coupled exchange IC50 (5 min) [1]: 0.048 | nda μM | IC50 [2, 3]: 47 nM

C=CC(=O)N1CCN(c2nc(=O)n(-c3c(C)ccnc3C(C)C)c3nc(-c4c(F)ccc5[nH]ncc45)c(Cl)cc23)[C@@H](C)C1 (single isomer, unassigned) [Example 82-2]
Coupled exchange IC50 (5 min) [1]: 0.096 | nda μM | IC50 [2, 3]: 239 nM

C=CC(=O)N1CCN(c2nc(=O)n(-c3c(C(C)C)ncc(O)c3C)c3nc(-c4ccccc4F)c(Cl)cc23)[C@@H](C)C1 (single isomer, unassigned) [Example 83-2]
Coupled exchange IC50 (5 min) [1]: 0.035 | nda μM | IC50 [2, 3]: 84 nM

C=CC(=O)N1CCN(c2nc(=O)n(-c3c(CO)ccnc3C(C)C)c3nc(-c4ccccc4F)c(Cl)cc23)[C@@H](C)C1 (single isomer, unassigned) [Example 84-2]
Coupled exchange IC50 (5 min) [1]: 0.058 | nda μM | IC50 [2, 3]: 43 nM

C=CC(=O)N1CCN(c2nc(=O)n(-c3ccccc3C(C)C)c3c(C)c(-c4c(O)cccc4F)c(Cl)cc23)[C@@H](C)C1 (single isomer, unassigned) [Example 90-2]
Coupled exchange IC50 (5 min) [1]: 0.151 µM | Coupled exchange IC50 (2 h) ([1]; 2 h compound pre-incubation): 175 nM | IC50 ([2]; read-out: p-ERK IC50 (4 h; MIA PaCa-2), 4 h compound treatment): 111 nM

C=CC(=O)N1CCN(c2nc(=O)n(-c3ccccc3C(C)C)c3nc(-c4c(F)cccc4C#N)c(Cl)cc23)[C@@H](C)C1 (single isomer, unassigned) [Example 98-1]
Coupled exchange IC50 (5 min) [1]: 0.193 | nda μM | IC50 [2, 3]: 155 nM

C=CC(=O)N1CCN(c2nc(=O)n(-c3c(C)cccc3C(C)C)c3nc(-c4ccccc4F)c(C)cc23)[C@@H](C)C1 (single isomer, unassigned) [Example 102-2]
Coupled exchange IC50 (5 min) [1]: 0.182 | nda μM | IC50 [2, 3]: 211 nM

C=CC(=O)N1CCN(c2nc(=O)n(-c3ccccc3C(C)C)c3cc(-c4ccccc4F)c(Cl)nc23)[C@@H](C)C1 (single isomer, unassigned) [Example 110-2]
Coupled exchange IC50 (5 min) [1]: 0.071 | nda μM | IC50 [2, 3]: 247 nM

C=CC(=O)N1CCN(c2nc(=O)n(-c3c(C(C)C)ncnc3N(C)C)c3nc(-c4ccccc4F)c(Cl)cc23)[C@@H](C)C1 (single isomer, unassigned) [Example 140-1]
Coupled exchange IC50 (5 min) [1]: 0.073 | nda μM | IC50 [2, 3]: 47 nM

C=CC(=O)N1CCN(c2nc(=O)n(-c3c(C(N)=O)cccc3C(C)C)c3nc(-c4ccccc4F)c(Cl)cc23)[C@@H](C)C1 (single isomer, unassigned) [Example 142-2]
Coupled exchange IC50 (5 min) [1]: 0.029 | nda μM | IC50 [2, 3]: 29 nM

C=CC(=O)N1CCN(c2nc(=O)n(-c3c(C)ccnc3C(C)C)c3nc(-c4ccccc4F)c(C)nc23)[C@@H](C)C1 (single isomer, unassigned) [Example 143-1]
Coupled exchange IC50 (5 min) [1]: 2.72 | nda μM | IC50 [2, 4]: 3540 nM

C=CC(=O)N1CCN(c2nc(=O)n(-c3c(C)ccnc3C(C)C)c3nc(-c4ccccc4F)c(C)nc23)[C@@H](C)C1 (single isomer, unassigned) [Example 143-2]
Coupled exchange IC50 (5 min) [1]: 2.43 | nda μM | IC50 [2, 4]: 397 nM

C=CC(=O)N1CCN(c2nc(=O)n(-c3c(N)cccc3C(C)C)c3nc(-c4ccccc4F)c(Cl)cc23)[C@@H](C)C1 (single isomer, unassigned) [Example 155-1]
Coupled exchange IC50 (5 min) [1]: 0.038 | nda μM | IC50 [2, 3]: 43 nM

C=CC(=O)N1CCN(c2nc(=O)n(-c3c(C)cccc3C(C)C)c3nc(-c4c(C)ccc5[nH]ncc45)c(F)cc23)[C@@H](C)C1 [68-2, 6-fluoro-7-(5-methyl-1H-indazol-4-yl)-1-(2-methyl-6-(2-propanyl)phenyl)-4-((2S)-2-methyl-4-(2-propenoyl)-1-piperazinyl)pyrido[2,3-d]pyrimidin-2(1H)-one]
Coupled exchange IC50 (5 min) [1]: 0.947 | nda μM | IC50 [2, 3]: 999 nM
